Test results from patent US20200354404A1, “PEPT[…], […] AND USES THEREOF” (priority 2019, published 2020).
Values joined by “and” are separate entries in the source; they are usually repeats but may differ in a detail not shown here. Identical values can stand only once. Like-named read-outs stand apart in the source and are kept apart here. Where no end group is shown, it is not given here.

Columns and labels:
[1] = Stability of endomorphin-2 in mouse serum; format: in vitro ADME; conditions: read-out: amount (AUC O.D.254) in mouse serum less than amount originally placed
Text: In addition, as the result of the rapid hydrolysis and enzymatic degradation, a number of peptides are not stable enough to be used in drug discovery, diagnosis, prevention and treatment of diseases.
A graph of stability of EM2 and K763 in mice serum is depicted in FIG. 11.

[2] = Animal studies (protection); conditions: in vivo
in vivo = conditions: male, Sprague-Dawley, rat, 1 mg/kg; for AUC(0-t): AUClast; for AUC(0-t) / MRT last: iv 1 mg/kg; for MRT last: MRTlast
[3] = cited from earlier work
in vitro [4] = conditions: mouse, mouse serum
OPRM-1 receptor = OPRM-1 receptor (Homo sapiens, UniProt P35372); test: Binding to OPRM-1; conditions: FIG. 10
Text: FIG. 10 are graphs depicting binding of K763 and Endomorphin-2 binding to OPRM-1.
The binding is depicted in FIG. 10.

mice = test: APAP-induced cytokines, liver enzymes and lethality in mice; format: in vivo
[5] = tested on: HMGB1-induced TNF secretion; test: HMGB1-induced TNF secretion; format: cell-based; conditions: FIG. 7
[6] = iv 1 mg/kg
IRTK = IRTK (Homo sapiens, UniProt P06213); conditions: Kato et al. 2009; cited from earlier work
in vitro [7] = conditions: mouse, serum
Experimental: Stability of Bradykinin amide and (1-9)-Aza-Bradykinin in serum was measured.

OPRM-1 receptor, sequence (P35372 whole entry): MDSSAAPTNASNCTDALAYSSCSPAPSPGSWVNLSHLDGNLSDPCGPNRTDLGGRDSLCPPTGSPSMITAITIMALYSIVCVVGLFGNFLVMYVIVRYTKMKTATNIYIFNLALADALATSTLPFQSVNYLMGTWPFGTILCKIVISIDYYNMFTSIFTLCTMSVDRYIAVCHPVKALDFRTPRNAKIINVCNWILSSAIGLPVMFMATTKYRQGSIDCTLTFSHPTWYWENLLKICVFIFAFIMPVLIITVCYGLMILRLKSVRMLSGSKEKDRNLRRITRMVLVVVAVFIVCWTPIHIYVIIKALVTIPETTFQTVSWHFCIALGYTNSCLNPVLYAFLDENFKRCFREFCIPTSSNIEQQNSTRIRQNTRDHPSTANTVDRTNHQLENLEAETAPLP
IRTK, sequence (P06213 28-1382): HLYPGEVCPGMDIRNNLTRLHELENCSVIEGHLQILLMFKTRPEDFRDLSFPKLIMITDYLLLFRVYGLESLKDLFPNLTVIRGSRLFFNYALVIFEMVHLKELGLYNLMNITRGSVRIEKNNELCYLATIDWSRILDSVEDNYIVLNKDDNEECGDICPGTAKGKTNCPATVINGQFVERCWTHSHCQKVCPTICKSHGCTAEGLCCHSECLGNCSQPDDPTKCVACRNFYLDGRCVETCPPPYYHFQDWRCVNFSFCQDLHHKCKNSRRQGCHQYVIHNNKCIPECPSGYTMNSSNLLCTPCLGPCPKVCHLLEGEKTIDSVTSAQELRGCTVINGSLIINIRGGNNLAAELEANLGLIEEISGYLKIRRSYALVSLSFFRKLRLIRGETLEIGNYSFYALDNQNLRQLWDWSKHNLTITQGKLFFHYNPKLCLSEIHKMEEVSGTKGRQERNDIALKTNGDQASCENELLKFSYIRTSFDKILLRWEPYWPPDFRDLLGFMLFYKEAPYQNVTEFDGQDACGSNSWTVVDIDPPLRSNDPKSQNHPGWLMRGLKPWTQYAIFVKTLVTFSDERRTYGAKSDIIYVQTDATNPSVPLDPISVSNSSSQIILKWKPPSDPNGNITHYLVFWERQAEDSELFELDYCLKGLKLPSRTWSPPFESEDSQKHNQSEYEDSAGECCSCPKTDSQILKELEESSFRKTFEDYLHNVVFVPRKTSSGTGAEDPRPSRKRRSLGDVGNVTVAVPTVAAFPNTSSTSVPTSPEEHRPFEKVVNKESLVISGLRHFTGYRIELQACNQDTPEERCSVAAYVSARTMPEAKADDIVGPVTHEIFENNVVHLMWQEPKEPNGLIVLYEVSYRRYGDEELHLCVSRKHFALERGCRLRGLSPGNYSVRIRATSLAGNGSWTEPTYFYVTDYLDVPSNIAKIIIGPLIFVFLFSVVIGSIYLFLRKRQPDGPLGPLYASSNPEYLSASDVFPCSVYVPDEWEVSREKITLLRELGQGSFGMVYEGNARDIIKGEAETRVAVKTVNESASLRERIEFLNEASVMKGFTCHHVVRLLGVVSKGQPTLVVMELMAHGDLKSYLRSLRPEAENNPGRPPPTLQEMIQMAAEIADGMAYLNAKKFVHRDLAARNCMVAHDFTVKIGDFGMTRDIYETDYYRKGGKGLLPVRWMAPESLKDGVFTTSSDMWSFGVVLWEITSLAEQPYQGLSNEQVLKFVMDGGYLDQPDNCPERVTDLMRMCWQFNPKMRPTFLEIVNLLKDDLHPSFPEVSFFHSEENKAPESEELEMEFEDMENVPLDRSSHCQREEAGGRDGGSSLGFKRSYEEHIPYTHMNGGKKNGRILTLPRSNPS

NC(=O)C(Cc1ccccc1)NC(=O)C(Cc1ccccc1)NC(=O)[C@@H]1CCCN1C(=O)C(N)Cc1ccc(O)cc1 (stereo partly drawn) [Endomorphin-2]
metabolised at 2 h [1]: ~95%

N[C@@H](Cc1ccccc1)C(=O)N[C@@H](CO)C(=O)N[C@@H](CO)C(=O)N[C@@H](CCC(=O)O)C(=O)O [FSSE, reference compound]
protection in animal studies (in words) [2]: protective | half-life (in vivo): < 1 min | in vivo half-life ([3]; in vivo): less than 5 minutes | half-life (in vitro [4]): 60 min

NC(=O)N(Cc1ccccc1)NC(=O)N(Cc1ccccc1)NC(=O)[C@@H]1CCCN1C(=O)N(N)Cc1ccc(O)cc1 [K763]
affinity for OPRM-1 compared with Endomorphin-2 (in words) (OPRM-1 receptor): stronger affinity than Endomorphin-2 | binding to OPRM-1 receptor (in words) (OPRM-1 receptor): shown to bind

NC(=O)N(CCC(=O)O)NC(=O)[C@H](CO)NC(=O)[C@H](CO)NC(=O)N(N)Cc1ccccc1 [K883]
APAP-induced pro-inflammatory cytokines (in words) (mice; FIG. 8): reduction | APAP-induced serum liver enzymes (in words) (mice; FIG. 8): reduction | APAP-induced lethality in mice (in words) (mice; FIG. 9): reduced | HMGB1-induced TNF secretion (in words) [5]: inhibits | protection in animal studies (in words) [2]: protective | half-life (in vivo; in vivo half-life): > 69 min | level at 0.5 h (in vivo; iv): 2910 ng/mL | level at 1 h (in vivo; iv): 1090 ng/mL | level at 2 h (in vivo; iv): 135 ng/mL | level at 4 h (in vivo; iv): 16.6 ng/mL | level at 6 h (in vivo; iv): 5.1 ng/mL | level at 8 h (in vivo; iv): 1.52 ng/mL | AUC(0-t) (in vivo; iv, Mean, mean of 3 rats): 3780 ng·h/mL | AUC(0-t) (in vivo; iv, individual rats): 3770 ng·h/mL | MRT last (in vivo; iv, Mean, mean of 3 rats): 33.4 min | MRT last (in vivo; iv, individual rats): 32.1 min | Plasma concentration ([6]; 0.50 hr, individual rats, 1 mg/kg): 3020 ng/mL and 2500 ng/mL and 3220 ng/mL | Plasma concentration ([6]; 1.0 hr, individual rats, 1 mg/kg): 814 ng/mL and 1160 ng/mL and 1300 ng/mL | Plasma concentration ([6]; 2.0 hr, individual rats, 1 mg/kg): 133 ng/mL and 130 ng/mL and 142 ng/mL | Plasma concentration ([6]; 4.0 hr, individual rats, 1 mg/kg): 17.0 ng/mL and 15.1 ng/mL and 17.1 ng/mL | Plasma concentration ([6]; 6.0 hr, individual rats, 1 mg/kg): 6.49 ng/mL and 4.04 ng/mL and 4.77 ng/mL | Plasma concentration ([6]; 8.0 hr, individual rats, 1 mg/kg): 2.0 ng/mL and 0.871 ng/mL and 1.68 ng/mL | tmax ([6]; individual rats): 0 h | AUClast ([6]; individual rats, 1 mg/kg): 3807 ng·h/mL and 3749 ng·h/mL | tmax, Mean ([6]; mean of 3 rats): 0 h | half-life (in vitro [4]): > 900 min

Ac-Asp1-Ile2-Tyr3-Glu4-Thr5-NH2
IRTK phosphorylation (in words) (IRTK): inhibit

RPPGFSPFR [bradykinin]
metabolised at 3 h (in vitro [7]): ~97% | in vivo half-life ([3]; background statement): less than 1 minutes
